# Legend:
# [1] = molecular target: T1, HLA-DR1 (Homo sapiens, UniProt P01903+P01911, A100R/D57E/F55L/F60I/F76Y/I96L/L162R/M171V/P40L/Q125E/R42F/V115G/Y59C); assay: Variant to Test A: peptide selectivity binding assay, HLA-DR1
# T1 construct: Human HLA-DR antigens were purified from various cell lines; endogenous in cells; host or cells: Hom 2 cell line
# Procedure: (§1) As a variant to test A, the ability of a peptide of the invention to bind to one or more HLA-DR molecules was assessed as follows:
# (§2) (i) Purification of HLA-DR Types from Cell Lines
# (§3) The method used was a modification of that described by Gorga et al, 1987, J.Biol.Chem. 262, 16087-16094. Human HLA-DR antigens were purified from various cell lines by immunoaffinity chromatography. […] Protein content was determined by a Biorad protein assay and purity by SDS-PAGE electrophoresis. […]
# (§4) 200 nM biotin-FHA307-320 in phosphate buffered saline (PBS) was incubated with either purified HLA-DR1, DR2, DR4Dw4, DR4Dw13 or DR4Dw14, (2-20μg/ml) in V-well microtitre plates (Nunc) with or without inhibitor peptides in assay buffer (PBS, 0.01% NP40 (Sigma.)) For DR3 inhibition, 400 nM Biotin-Ahx-(D)Ala-Ala-Ala-Che-lle-Ala-Ala-Ala-Thr-Leu-Lys-Ala-Ala-(D)Ala-OH was incubated with purified DR3 (20 μg/ml.), and incubated as above. After 48 hours, the incubates were treated, and absorbance readings taken as described in Test A. The inhibitory activity of peptides, expressed as IC50 values, was calculated using Microcal Origin software on a PC.
# [2] = molecular target: HLA-DR3; assay: Variant to Test A: peptide selectivity binding assay, HLA-DR3; set-up: species or system Human; conditions: did not bind significantly
# Procedure: as §1, §2, §3, §4
substance,measurement,setting,value
Phv-Ala-Arg-Ala-IIb-Ala-Arg-Ala-Papa-NH2 [Example 23],binding to HLA-DR1,[1],bind significantly
same,IC50,[2],> 100 µM

# From US6087336A, “Peptide derivatives useful in treating autoimmune diseases” (Zeneca Limited, priority 1996, dated 2000)
